In patent US6538033B2, “Nitric oxide donor compounds” (Huntington Medical Research Institutes, priority 2000, dated 2003):

How the values were obtained:
[1] = tested on: washed platelets; assay: Nitric oxide generation in vitro in the presence of washed platelets (chemiluminescence); format: cell-based, human; details: B-NOD 10, 100 or 1000 μM
Method: (§1) Venous blood was collected from healthy volunteers who had not previously been taking any drugs for at least two weeks; EDTA was used as an anticoagulant. Washed platelets were prepared as described in Radomski, M. and Moncada, S. (1983) An improved method for washing of human platelets with prostacyclin. Thromb Res 83,383-389, the disclosure of which is incorporated herein by reference, with some modifications. In brief, blood was centrifuged for 10 minutes at 200 g, and the resultant platelet rich plasma was removed. It was recentrifuged at 500 g for 10 minutes. The supernatant was discarded and the pellet was resuspended in Tyrode's solution. Platelet concentration was adjusted to 2×10^8 platelets/ml using a Coulter Counter (Model ZBI, Beckman-Coulter, Fullerton, Calif.). […]
(§2) The supernatant was analyzed for nitric oxide generation by chemiluminescence. […] Chemiluminescence was measured using a reducing system consisting of a ferrocene derivative dissolved in acetonitrile containing 1% perchloric acid, as described in Termin, A., Hoffmann, M. and Bing, R. J. (1992) A simplified method for the determination of nitric oxide in biological solutions. […] Under this condition, NO2 in the injected samples was reduced to NO and detected by chemiluminescence with the NO-analyzer (270 B, Sievers Res. Inc., Boulder, Colo.). […]

[2] = Nitric oxide generation in vivo, plasma NOx after oral administration; design: species or system New Zealand White male rabbits; details: 80 mg/kg orally, rabbits
Method: (§3) New Zealand White male rabbits were given 80 mg/kg of B-NOD. B-NOD was dissolved in 2 ml DMSO, suspended in 8 ml carboxymethylcellulose (0.5%) and administered orally. Blood (1 ml) was drawn from the ear vein using heparinized syringes before and 10 minutes, 30 minutes, 1 hour, 3 hours, 5 hours, 7 hours, and 24 hours following B-NOD administration. Blood samples were centrifuged at 1200 g for 10 minutes and deproteinized by an ultrafiltration device (MPS Micropartition, Millipore Corporation, Bedford, Mass.) and centrifuged again at 2500 g for 90 minutes. Plasma NOx was measured by chemiluminescence as described above.
(§4) Heart rate and systolic and diastolic blood pressures were measured through a 22 gauge by one inch catheter inserted into the ear artery connected to a DIGI-MED™Heart Performance Analyzer 100 (Louisville, Ky.). Determination of blood pressure and heart rate were carried out prior to and 1, 3, 5 hours after B-NOD administration. FIG. 4 illustrates concentrations of NOx in plasma of animals up to 24 hours following administration of B-NOD.

[3] = tested on: cGMP production in platelets; assay: Platelet cGMP in vitro (acetylation enzyme immunoassay); format: cell-based; details: human washed platelets; B-NOD 10, 100 or 1000 μM, 10 minutes
Method: Washed platelets were prepared from human blood as described above. 400 μl aliquots were incubated in the presence of B-NOD (10, 100 or 1000 μM) or methanol for 10 minutes. Incubations were terminated by centrifugation at 1000 g and the supernatant was removed. Ice-cold phosphate buffer was added to the pellets, and the pellets were sonicated for 20 seconds. cGMP was measured using an acetylation enzyme immunoassay system (Biotrak, Piscataway, N.J.).

[4] = tested on: platelet aggregation; assay: Platelet aggregation in vitro, thrombin as agonist (nephelometric aggregometer); format: cell-based, New Zealand rabbits; details: rabbit washed platelets; B-NOD 10, 100 or 1000 μM, 10 min preincubation; thrombin 0.04 to 0.14 U/ml
Method: Healthy male New Zealand rabbits were anesthetized with pentobarbital (10 mg/kg iv), ketamine (40 mg/kg im), xylazine (10 mg/kg im) and atropine (0.5 mg im). They were […] and mechanically ventilated with 95% oxygen (rate 40 strokes/min, tidal volume 25 ml). The heart was exposed with a median sternotomy, blood (40 ml) was collected from the right ventricle and washed platelets were prepared as described above. Platelet aggregation was monitored by a standard nephelometric technique in which 0.5 ml of platelet suspension (2×10^8 platelets/ml) were incubated at 37° C. and stirred at 1000 rpm in an aggregometer (Model PAP-3, Bio/Data corporation, Horsham, Pa.). The antiaggregant effects of B-NOD (10, 100 or 1000 μM) were tested by incubating platelets with B-NOD at 37.8° C. before the addition of thrombin. Incubation was carried out for 10 min. Thrombin was used as an agonist at relatively low concentrations (0.04 to 0.14 U/ml) to obtain submaximal aggregation in order to evaluate the drug's inhibitory effect.

[5] = Nitric oxide generation in vitro, spontaneous release in the absence of washed platelets (chemiluminescence); details: without platelets, B-NOD 10, 100 or 1000 μM
Method: as §1, §2

[6] = Blood pressure and heart rate after oral administration; format: in vivo, New Zealand White male rabbits; details: 80 mg/kg orally, rabbits; one, three and five hours following administration
Method: as §3, §4
Several NO donors are known to cause a fall in blood pressure, particularly when administered intravenously.

Q: With `O=C(Oc1cccc(CO[N+](=O)[O-])c1)c1ccccc1O` [B-NOD, 3-(nitrooxymethyl)phenyl 2-hydroxybenzoate] as the compound, how does the “maximal NO release” value ([1]; in the presence of platelets (2×10^8 platelets/ml), 10 minutes) read?
A: The value was 156 µmol/L.

Q: What about the “NO production (NOx)” value ([1]; with platelets) of the same compound?
A: The value was “increased NO production in a dose-dependent manner”.

Q: What about the “NOx concentration in plasma after 24 hours” value ([2]; 24 hours) of the same compound?
A: The value was “returned to control values”.

Q: And the “NOx concentration in plasma, course to seven hours” value ([2]; seven hours following administration)?
A: The value was “plateaued for seven hours”.

Q: And the “NOx concentration in plasma” value ([2]; three hours following administration (increase from 59 before administration))?
A: The value was 115 µmol/L.

Q: What about the “cyclic GMP production in platelets” value [3] of the same compound?
A: Its value is “increased cyclic GMP production in a dose-dependent manner”.

Q: And the “inhibition of platelet aggregation as compared to the control” value [4]?
A: Its value is “approximately 25%”.

Q: And the “NO production (NOx)” value [5]?
A: The value was “increased NO production in a dose-dependent manner”.

Q: What about the “maximal NO release” value ([5]; 37° C., 10 minutes) of the same compound?
A: Its value is 98 µmol/L.

Q: What about the diastolic pressure [6] of the same compound?
A: Its diastolic pressure is “did not affect”.

Q: And the heart rate [6]?
A: The heart rate was “failed to change”.

Q: And the systolic pressure [6]?
A: Its systolic pressure is “did not affect”.
